The source made the active and inactive calls.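 The calls were made as follows: active = tumour findings in long-term animal cancer tests in more than one sex, species or organ; inactive = no tumour finding and more than one negative test.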
Assay: DSSTox (CPDBAS) Carcinogenic Potency Database Summary MultiCellCall Results
Settings: animal carcinogenicity bioassays, multi-cell call summary
Method in brief: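 Summary call drawn from chronic long-term cancer bioassays in rats, mice, hamsters, dogs and nonhuman primates, using the most positive result per sex-species. Score: multispecies=50, multisex=30, multisite=20, summed for combinations.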
With `CC(=O)O[C@]1(C(C)=O)CC[C@H]2[C@@H]3C=C(Cl)C4=CC(=O)[C@@H]5C[C@@H]5[C@]4(C)[C@H]3CC[C@@]21C` the outcome was “active; multisite active; multisex active”. For `O=S(=O)([O-])[O-].[Cd+2]`, the outcome was “active; multisex active”. In the case of `Cc1cccn2c1nc1ccc(N)nc12`, the outcome was “active; multisite active; multisex active; multispecies active”. In the case of `Cc1ccc2c(c1N)C(=O)c1ccccc1C2=O`, the outcome was “active; multisite active; multisex active; multispecies active”. With `CN[C@@H](C)[C@H](O)c1ccccc1` the outcome was “inactive; multisex inactive; multispecies inactive”. In the case of `C=C(C)C#N`, the outcome was “inactive; multisex inactive; multispecies inactive”. In the case of `CN(C)CCOc1ccc(/C(=C(/CCCl)c2ccccc2)c2ccccc2)cc1`, the outcome was “inactive; multisex inactive”. With `Nc1ccccc1` the outcome was “active; multisite active; multisex active”. In the case of `CN(CCO)N=O`, the outcome was “active; multisite active”. With `ClC(Cl)=C(Cl)C(Cl)=C(Cl)Cl` the outcome was “active; multisex active”. With `CN(C)CNc1nnc(/C=C/c2ccc([N+](=O)[O-])o2)o1` the outcome was “active; multisite active”. With `CCN(C#N)N=O` the outcome was “active; multisex active”. For `Oc1ccc(OCc2ccccc2)cc1`, the outcome was “inactive; multisex inactive”. With `CC(=O)NN` the outcome was “active; multisex active”. For `COc1cc2c(cc1N)oc1ccccc12`, the outcome was “active; multisite active; multisex active”. For `O=NN1CCN(N=O)CC1`, the outcome was “active; multisex active”. For `CCCCN(N=O)C(N)=O`, the outcome was “active; multisite active; multisex active”. In the case of `COc1cc(/C=C/C(=O)O[C@H]2CC[C@]34C[C@]35CC[C@]3(C)[C@@H]([C@H](C)CCC=C(C)C)CC[C@@]3(C)[C@@H]5CC[C@H]4C2(C)C)ccc1O`, the outcome was “inactive; multisex inactive; multispecies inactive”. In the case of `O=P(O)(OCC(Br)CBr)OCC(Br)CBr` (stereo unspecified), the outcome was “active; multisite active; multisex active”. In the case of `COc1ccc(C(c2ccc(OC)cc2)C(Cl)(Cl)Cl)cc1`, the outcome was “inactive; multisex inactive; multispecies inactive”. In the case of `NNC(=O)c1cccnc1`, the outcome was “active; multisex active”. For `[O]=[Mo](=[O])=[O]`, the outcome was “active; multisex active”. For `Nc1ccc2c(c1)C(=O)c1ccccc1C2=O`, the outcome was “active; multisite active; multisex active; multispecies active”. For `COc1cc2c(c3c1c(=O)c1ccccc1n3C)C=CC(C)(C)O2`, the outcome was “active; multisite active; multisex active”. In the case of `OC[P+](CO)(CO)CO`, the outcome was “inactive; multisex inactive; multispecies inactive”. With `Cc1ccc(OP(=O)(Oc2ccc(C)cc2)Oc2ccc(C)cc2)cc1` the outcome was “inactive; multisex inactive; multispecies inactive”. For `C/C=C1/C[C@@H](C)[C@](O)(CO)C(=O)OCC2=CC[N+]3([O-])CC[C@@H](OC1=O)[C@@H]23` (stereo partly specified), the outcome was “active; multisex active”. For `Cc1cc(N=Nc2c(O)ccc3ccccc23)c(S(=O)(=O)O)cc1Cl`, the outcome was “active; multisite active”. In the case of `CC(=O)CN(CC(C)=O)N=O`, the outcome was “active; multisite active; multisex active”. With `O=NN(CCO)CCO` the outcome was “active; multisite active; multisex active”. In the case of `C#C[C@]1(OC(C)=O)CC[C@H]2[C@@H]3CCC4=C[C@@H](OC(C)=O)CC[C@@H]4[C@H]3CC[C@@]21C`, the outcome was “inactive; multispecies inactive”. For `CCOC(=O)CC(SP(=S)(OC)OC)C(=O)OCC` (stereo unspecified), the outcome was “inactive; multisex inactive; multispecies inactive”. With `O=[N+]([O-])c1ccc(-c2cnc3ccccn23)o1` the outcome was “active; multisite active; multisex active; multispecies active”. For `COC(=O)C1=C(C)NC(C)=C(C(=O)OCC(C)(C)CN(C)Cc2ccccc2)C1c1cc([N+](=O)[O-])ccc1F` (stereo unspecified), the outcome was “inactive; multisex inactive”. In the case of `CCOc1nc2cccc(C(=O)OC(C)OC(=O)OC3CCCCC3)c2n1Cc1ccc(-c2ccccc2-c2nn[nH]n2)cc1` (stereo unspecified), the outcome was “inactive; multisex inactive”. With `Nc1ccc(N=Nc2ccc(N)cc2)cc1` the outcome was “inactive; multisex inactive”.
